Tested on: diarrhea-predominant IBS subjects
Test: 3007 Study: open-label 52-week safety study, adverse events and withdrawals
Conditions: Placebo/Cilansetron 2 mg

SMILES: Cc1nccn1C[C@H]1CCc2c(c3cccc4c3n2CCC4)C1=O [cilansetron, (R)-(−)-4,5,6,8,9,10-hexahydro-10-[(2-methyl-1H-imidazol-1-yl)methyl]-11H-pyrido-[3,2,1-jk]-carbazol-11-one]
- TEAE: Joint Related Signs and Symptoms: 3 (1%) n (%)
- TEAE: Joint Sprain: 3 (1%) n (%)
- TEAE: Joint Swelling: 0 n (%)
- TEAE: Kidney Infection NOS: 1 (<1%) n (%)
- TEAE: Laceration: 3 (1%) n (%)
- TEAE: Ligament Sprain: 1 (<1%) n (%)
- TEAE: Limb Discomfort NOS: 1 (<1%) n (%)
- TEAE: Limb Injuries NEC (Incl Traumatic Amputation): 3 (1%) n (%)
- TEAE: Limb Injury NOS: 0 n (%)
- TEAE: Lip and Palate Disorders NEC: 1 (<1%) n (%)
- TEAE: Liver Function Analyses: 11 (4%) n (%)
- TEAE: Liver Function Tests NOS Abnormal: 2 (<1%) n (%)
- TEAE: Localised Infection: 1 (<1%) n (%)
- TEAE: Localised Osteoarthritis: 0 n (%)
- TEAE: Loss of Consciousness: 0 n (%)
- TEAE: Lower Limb Fracture NOS: 1 (<1%) n (%)
- TEAE: Lower Limb Fractures and Dislocations: 2 (<1%) n (%)
- TEAE: Lower Respiratory Tract and Lung Infections: 7 (3%) n (%)
- TEAE: Lymphocyte Count Increased: 0 n (%)
- TEAE: Memory Loss (Excl Dementia): 0 n (%)
- TEAE: Metabolic Bone Disorders: 1 (<1%) n (%)
- TEAE: Metabolism Tests NEC: 2 (<1%) n (%)
- TEAE: Migraine Headaches: 0 n (%)
- TEAE: Migraine NOS: 0 n (%)
- TEAE: Mineral and Electrolyte Analyses: 0 n (%)
- TEAE: Monoarthritis: 1 (<1%) n (%)
- TEAE: Monocyte Count Decreased: 1 (<1%) n (%)
- TEAE: Monocyte Count Increased: 0 n (%)
- TEAE: Mononeuropathies: 1 (<1%) n (%)
- TEAE: Movement Disorder NOS: 1 (<1%) n (%)
- TEAE: Muscle Cramps: 2 (<1%) n (%)
- TEAE: Muscle Infections and Inflammations: 1 (<1%) n (%)
- TEAE: Muscle Pains: 1 (<1%) n (%)
- TEAE: Muscle Related Signs and Symptoms NEC: 2 (<1%) n (%)
- TEAE: Muscle Spasms: 0 n (%)
- TEAE: Muscle Strain: 3 (1%) n (%)
- TEAE: Muscle Tone Abnormalities: 0 n (%)
- TEAE: Muscle, Tendon and Ligament Injuries: 4 (1%) n (%)
- TEAE: Musculoskeletal Chest Pain: 0 n (%)
- TEAE: Musculoskeletal and Connective Tissue Disorders: 31 (11%) n (%)
- TEAE: Musculoskeletal and Connective Tissue Signs and Symptoms NEC: 14 (5%) n (%)
- TEAE: Musculoskeletal and Soft Tissue Imaging Procedures: 1 (<1%) n (%)
- TEAE: Myalgia: 1 (<1%) n (%)
- TEAE: Myasthenia Gravis: 1 (<1%) n (%)
- TEAE: Mycoplasma Infections: 0 n (%)
- TEAE: Myeloradiculopathy: 1 (<1%) n (%)
- TEAE: Myositis: 1 (<1%) n (%)
- TEAE: Nail Fungal Infection NOS: 2 (<1%) n (%)
- TEAE: Nail Infection NOS: 0 n (%)
- TEAE: Nasopharyngitis: 10 (4%) n (%)
- TEAE: Nausea: 10 (4%) n (%)
- TEAE: Nausea and Vomiting Symptoms: 14 (5%) n (%)
- TEAE: Neck Pain: 0 n (%)
- TEAE: Nervous System Disorders: 23 (8%) n (%)
- TEAE: Neurological Signs and Symptoms NEC: 2 (<1%) n (%)
- TEAE: Neuromuscular Junction Dysfunction: 1 (<1%) n (%)
- TEAE: Neutrophil Count Decreased: 0 n (%)
- TEAE: Night Cramps: 0 n (%)
- TEAE: Nitrite Urine Present: 1 (<1%) n (%)
- TEAE: Non-Accidental Overdose: 0 n (%)
- TEAE: Non-Site Specific Injuries NEC: 6 (2%) n (%)
- TEAE: Non-Site Specific Procedural Complications: 5 (2%) n (%)
- TEAE: Ophthalmic Function Diagnostic Procedures: 1 (<1%) n (%)
- TEAE: Oral Dryness and Saliva Altered: 1 (<1%) n (%)
- TEAE: Osteoarthritis Aggravated: 0 n (%)
- TEAE: Osteoarthropathies: 0 n (%)
- TEAE: Osteopenia: 1 (<1%) n (%)
- TEAE: Osteoporosis NOS: 1 (<1%) n (%)
- TEAE: Otitis Media NOS: 1 (<1%) n (%)
- TEAE: Overdoses: 0 n (%)
- TEAE: Pain in Limb: 4 (1%) n (%)
- TEAE: Paraesthesias and Dysaesthesias: 1 (<1%) n (%)
- TEAE: Parkinson's Disease NOS: 0 n (%)
- TEAE: Parkinson's Disease and Parkinsonism: 0 n (%)
- TEAE: Periorbital Haematoma: 0 n (%)
- TEAE: Peripheral Swelling: 0 n (%)
- TEAE: Pharyngitis Streptococcal: 3 (1%) n (%)
- TEAE: Physical Examination Procedures: 1 (<1%) n (%)
- TEAE: Plantar Fasciitis: 2 (<1%) n (%)
- TEAE: Pneumonia Mycoplasmal: 0 n (%)
- TEAE: Pneumonia NOS: 1 (<1%) n (%)
- TEAE: Popliteal Bursitis: 1 (<1%) n (%)
- TEAE: Post Procedural Discomfort: 1 (<1%) n (%)
- TEAE: Post Procedural Pain: 4 (1%) n (%)
- TEAE: Proctalgia: 4 (1%) n (%)
